Literature values in paper PMC6270667, “Loddigesiinols G–J: α-Glucosidase Inhibitors from Dendrobium loddigesii” (Molecules, 2014).

Target: α-glucosidase (Saccharomyces cerevisiae, UniProt P53341)
Design: method as in PMID 16478243
Conditions: reported in the literature

α-glucosidase, sequence (P53341 whole entry): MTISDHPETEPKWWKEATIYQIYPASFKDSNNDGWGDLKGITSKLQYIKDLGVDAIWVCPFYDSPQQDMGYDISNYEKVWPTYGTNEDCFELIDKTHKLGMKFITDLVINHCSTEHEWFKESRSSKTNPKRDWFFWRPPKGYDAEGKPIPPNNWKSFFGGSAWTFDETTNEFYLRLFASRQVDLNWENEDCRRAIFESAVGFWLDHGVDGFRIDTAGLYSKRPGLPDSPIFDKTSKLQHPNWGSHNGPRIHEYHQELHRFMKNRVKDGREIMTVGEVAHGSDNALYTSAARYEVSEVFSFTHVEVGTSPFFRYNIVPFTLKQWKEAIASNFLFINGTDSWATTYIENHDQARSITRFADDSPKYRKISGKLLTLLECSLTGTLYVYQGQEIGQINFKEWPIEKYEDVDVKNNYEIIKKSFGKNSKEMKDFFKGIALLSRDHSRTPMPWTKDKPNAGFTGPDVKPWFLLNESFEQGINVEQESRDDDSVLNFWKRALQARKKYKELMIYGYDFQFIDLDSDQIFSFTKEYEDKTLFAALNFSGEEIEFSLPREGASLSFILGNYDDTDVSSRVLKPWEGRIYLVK

Structure (SMILES): Oc1ccc(/C=C/c2cc(O)cc(O)c2)cc1 [trans-Resveratrol, trans-resveratrol]
- α-glucosidase inhibitory effect compared with the clinical drug acarbose: more potent inhibitory effect than the clinical drug acarbose
